Laboratory results published in patent US5574059A, “Treating disorders mediated by vascular smooth muscle cell proliferation” (priority 1995, dated 1996).
Like-named read-outs stand apart in the source and are kept apart here.

How the values were obtained:
I2 imidazoline receptors = experiment: inhibition of 3H-idazoxan (5 nM) binding to rat aortic smooth muscle cell membranes; conditions: 3H-idazoxan 5 nM
Experimental: Binding to I2 imidazoline receptors is determined by the following assay. Membranes are prepared from cultured cells for ligand binding as described in Regunathan, S., et al, Biochem. Pharmacol. 45, 1667-1675 (1993) and Regunathan, S., et al, J. Neurosci. Res. 34, 681-688 (1993) and the disclosure in these on this is incorporated herein by reference. In particular, harvested rat aortic smooth muscle cells are homogenized in Hepes-sucrose buffer (pH 7.4) with a Teflon-glass homogenizer and centrifuged at 1000 × g for 10 minutes. The pellets are suspended in ice-cold Tris-HCl buffer (pH 7.7) with 5mM ethylene diamine tetracetic acid and homogenized using a Polytron (Brinkman Instruments) for 10 seconds. The homogenate is centrifuged at 40,000 × g for 30 minutes to produce a membrane pellet. The membrane pellet is washed three times by resuspending in buffer and re-centrifuging. The washed pellet is suspended in fresh Tris-HCl buffer (pH 7.4) to provide approximately 100 μg protein per assay tube. Binding assays are performed in Tris-HCl buffer (pH 7.7) using 5 nM of […]. Non-specific binding is defined by 100 μM of unlabelled idazoxan which will inhibit the specific binding of ^3 H-idazoxan. Thus the binding remaining in the presence 100 μM of idazoxan is due to non-specific binding and this will be substracted from total binding to calculate the specific binding. Following incubation at 25° C. for 30 minutes, reaction is terminated by rapid vacuum filtration over Whatman GF/B filters and washed with 10 ml of ice-cold buffer. Filters are suspended in scintillation fluid and radioactivity counted in a liquid scintillation counter. Membrane protein is assayed by Coomassie Blue method (Pierce) using bovine serum albumin as standard.
Determination of inhibition constant (Ki) for each drug is determined as follows: The binding of ^3 H-idazoxan to membranes of vascular smooth muscle cells is determined in the presence of 0.1 nM to 100 μM concentrations of potential drug. The percent inhibition of specific binding of ^3 H-idazoxan by each concentration is calculated and plotted against concentration. The data is analyzed by non-linear curve fitting program, LIGAND and the IC50 value for each potential drug is calculated. The affinity for each drug (Ki) for I2 imidazoline receptors is calculated using the formula Ki =IC50 /1+L/Kd where L is the concentration of ^3 H-idazoxan used for binding and Kd is the dissociation constant for ^3 H-idazoxan for I2 imidazoline receptors. The dissociation constant (Kd) is determined by Scatchard analysis of the saturation binding of ^3 H-idazoxan using the formula [formula] where B and F are the amount of bound and free ligand, respectively, and Bmax is the number of binding sites.
Primary cultures of rat-aortic smooth muscle cells were prepared by a modification (described in Erlinge, Do, et al, Am. J. Physiol. 265, H1089-1097, 1993) of the method of Meyer-Lehnert and Schrier (Meyer-Lehnert, H., et al, Hypertension 13,350-361, 1989), the disclosure of these cited articles being incorporated herein by reference. Briefly, rats were killed by anesthetic overdose and the aorta were removed and incubated with collagenase (2 mg/ml) in Dulbecco's modified Eagle's minimum essential medium (DMEM). The vessel was stripped of adventitia, cut longitudinally and the intima scraped away. After further collagenase treatment, the remaining tissue was passed 20 times through 18 and 16 gauge needles. The resulting cell suspension was centrifuged at 500 × g for 5 minutes and resuspended in DMEM containing penicillin (100 units/ml), streptomycin (100 μg/ml), 2 mM L-glutamine and 10% fetal calf serum. The suspended cells were plated in T-75 flasks, cultured until confluent, and subcultured in 100 mm plates. The confluent cells were harvested and membranes were prepared. Cell viability was determined by trypan blue exclusion.

[1] = tested on: rat aortic smooth muscle cells; experiment: antagonism of the antiproliferative effect in serum-stimulated smooth muscle cells; format: cell-based; conditions: Rattus norvegicus; in presence of tolazoline 100 μM; read-out: IC50 of idazoxan in presence of tolazoline
Experimental: Inhibition of serum-stimulated proliferation of rat aortic smooth muscle cells is determined as follows: The antiproliferative effect of potential drug is determined by measuring the incorporation of ^3 H-thymidine into cellular DNA. Exposure of quiescent vascular smooth muscle cell to serum, which contains many growth factors, results in a large increase in cellular proliferation as measured by ^3 H-thymidine incorported into DNA. The inhibitory effect of potential drug on serum-stimulated proliferation is tested by adding a drug before the addition of serum and determining if the serum-stimulated proliferation is reduced. […] In that event, antagonizing of the antiproliferative effect of idazoxan is determined by adding antagonist before the addition of idazoxan to serum-stimulated vascular smooth muscle cells.
After 48 hours, the cells were starved in 0.5% FCS for another 48 hours to decrease proliferation and induce quiescence. The medium was replaced by serum-free medium 24 hours prior to addition of drug (drugs are described below) and 10% fetal calf serum or only 10% fetal calf serum in the case of the control. The cells were then incubated for 24 hours and ^3 H-thymidine (1 μCi/well) was added at hour 20. At the end of the 24 hour period, the medium was aspirated and the cells were washed three times with phosphate-buffered saline and twice with ice-cold trichloroacetic acid. Fixed cells were then solubilized in 0.2M NaOH and sonicated. A 100 μl aliquot was used for scintillation counting.
To test this, the effect of tolazoline (100 μM) on the concentration/response curve was determined.

[2] = Example V: patient with Type I diabetes mellitus, overgrowth of retinal vessels; format: in vivo, human; conditions: idazoxan 75 mg/day; UK 14,304 60, naphazoline 125, cirazoline 60, agmatine 900 mg/day
Excerpt: A person with Type I diabetes mellitus and maintained on insulin presents with progressive symptoms of loss of visual acuity bilaterally with evidence on opthalmascopic examination of overgrowth of retinal vessels and hemorrhages.

[3] = Example III: patient with coronary artery disease, angioplasty; format: in vivo, human
Experimental: A person presents with the onset of chest pain on exertion. […] Ten days before angioplasty, the patient is begun on 75 or 100 mg/day of idazoxan. […] Treatment with 50 mg/day idazoxan is continued for 3 months.

[4] = Example II: patient with narrowing of right common carotid artery, balloon angiography; format: in vivo, human; conditions: idazoxan 50 or 75 mg/day two weeks before and 3 months after balloon angiography; UK 14,304 125, cirazoline 60, naphazoline 125, agmatine 900 mg/day
Experimental: A person presents with a history of intermittent brief episodes of transient monocular blindness in the right eye associated with clumsiness and weakness of the left arm and leg. Angiography indicates substantial narrowing of the right common carotid artery. They are with treated with idazoxan at a dosage of 50 or 75 mg/day for two weeks preceding balloon angiography and for 3 months thereafter.

[5] = Example I: patient with intermittent claudication, iliac artery plaques; format: in vivo, human; conditions: over 30 days oral; idazoxan 50 and 75 mg/day, UK 14,304 125, naphazoline 125, cirazoline 75, agmatine 900 mg/day
Excerpt: A person presents with progressive symptoms of intermittent claudication in both legs.

Question: Which Ki (I2 imidazoline receptors; "about", read-out: Ki, inhibition of 3H-idazoxan binding) does the source give for c1ccc2c(c1)OCC(C1=NCCN1)O2 (centres unmarked) [Idazoxan, 2-[2-(1,4-benzodioxanyl)]-2-imidazoline] here?
Answer: ~10 nM

Question: And the Ki (I2 imidazoline receptors; Table 2, rat aortic smooth muscle cell membranes, read-out: Ki)?
Answer: 8.5 ± 0.35 nM

Question: What about the IC50 [1] of the same compound?
Answer: 55000 nM

Question: And the “progression and visual symptoms” value [2]?
Answer: arrest of the progression and some regression of the visual symptoms

Question: What about the “symptoms / restenosis after angioplasty” value ([3]; idazoxan 50 mg/day continued for 3 months, substitutes, dose not stated) of the same compound?
Answer: remains symptomless without evidence of restenosis

Question: What about the chest pain ([3]; idazoxan 75 or 100 mg/day from ten days before angioplasty) of the same compound?
Answer: no further chest pain

Question: And the “symptoms and restenosis of the vessel” value [4]?
Answer: Symptoms disappear without evidence of restenosis of the vessel

Question: And the “symptoms of intermittent claudication” value [5]?
Answer: stabilization of symptoms
